Experimental data from patent US4339461A, “N-Substituted 3-nitro-benzylamines” (Chevron Research Company, priority 1980, dated 1982).

Experiments:
[1] = test system: Tomato Early Blight organism, Alternaria solani; assay: Fungicidal efficacy, control of Tomato Early Blight on sprayed tomato seedlings; format: in vivo; conditions: for Fungicidal Efficacy - % Control, TEB (Tomato Early Blight): 250 ppm spray, about 12 days; for fungicidal activity on Tomato Early Blight (in words): Table I test
[2] = test system: Powdery mildew pathogen, Erysiphe polygoni; assay: Fungicidal efficacy, control of Bean Powdery Mildew on sprayed bean seedlings; format: in vivo; conditions: for Fungicidal Efficacy - % Control, BPM (Bean Powdery Mildew): 250 ppm spray, inoculated one day later, about 10 days; for fungicidal activity on Bean Powdery Mildew (in words): Table I test
Description: The powdery mildew test was made using bean seedlings (variety Bountiful) with well-developed primary leaves. The pathogen was Erysiphe polygoni. […] The treated plants were inoculated one day after spray application of the test compound with the pathogen. […] The rate of infection on the leaves was made after about 10 days. The percent disease control provided by a given test compound was based on the disease reduction relative to untreated check plants. The results are reported in Table I. The test was repeated on Compound No. 1.

fungi = assay: Fungicidal activity overall (tests of Examples 1 and 2, Table I); format: in vivo
malaria = conditions: disclosed by Burkhalter et al, 1948; cited from earlier work
[3] = test system: Tomato Late Blight, Phytophthora infestans; format: in vivo; conditions: 250 ppm spray; inoculated one day later; about 12 days

Compound | Fungicidal Efficacy - % Control, TEB (Tomato Early Blight) [1] [%] | Fungicidal Efficacy - % Control, BPM (Bean Powdery Mildew) [2] [%] | fungicidal activity (in words) (fungi) | antimalarial activity (in words) (malaria) | further results
CCCN(CCC)Cc1cccc([N+](=O)[O-])c1 [Compound 1, N,N-Dipropyl-3-Nitro-Benzylamine] | 60 | 86 | unexpected fungicidal activity | – | % control, Tomato Early Blight (repeat test) ([1]; 16 ppm): 90%; % control, Tomato Early Blight (repeat test) ([1]; 40 ppm): 90%; % control, Tomato Early Blight (repeat test) ([1]; 100 ppm): 93%; fungicidal activity on Tomato Early Blight (in words) [1]: unexpected fungicidal activity; % control, powdery mildew (repeat test) ([2]; 16 ppm): 0%; % control, powdery mildew (repeat test) ([2]; 40 ppm): 56%; % control, powdery mildew (repeat test) ([2]; 100 ppm): 83%; fungicidal activity on Bean Powdery Mildew (in words) [2]: unexpected fungicidal activity
CCN(CC)Cc1cccc([N+](=O)[O-])c1 [Compound 2, N,N-diethyl-3-nitro-benzylamine, reference compound] | 0 | 0 | – | antimalarial activity | fungicidal activity on Tomato Early Blight (in words) [1]: no fungicidal activity; fungicidal activity on Bean Powdery Mildew (in words) [2]: no fungicidal activity
CCCN(CCC)Cc1ccc([N+](=O)[O-])cc1 [Compound 3, N,N-dipropyl-4-nitro-benzylamine, reference compound] | 0 | 0 | no fungicidal activity | antimalarial activity | –
CCCN(CCC)Cc1cccc(F)c1 [Compound 4, reference compound] | 0 | 0 | no fungicidal activity | – | –
CSc1cccc(NCc2cccc([N+](=O)[O-])c2)c1 [Compound 5, N-(3'-methylthiophenyl)-3-nitro-benzylamine] | – | 79 | activity comparable to that of Compound 1 | – | –
CSc1cccc(N(Cc2cccc([N+](=O)[O-])c2)S(C)(=O)=O)c1 [Compound 6, N-(3-nitrobenzyl)-N-(3'-methylthiophenyl)-methane sulfonamide] | 81 | – | activity comparable to that of Compound 1 | – | Fungicidal Efficacy - % Control, TLB (Tomato Late Blight) [3]: 75%
CS(=O)(=O)c1cccc(NCc2cccc([N+](=O)[O-])c2)c1 [Compound 7] | – | – | activity comparable to that of Compound 1 | – | Fungicidal Efficacy - % Control, TLB (Tomato Late Blight) [3]: 75%
CCN(CC)Cc1ccc([N+](=O)[O-])cc1 [N,N-diethyl-4-nitro-benzylamine] | – | – | – | antimalarial activity | –
